Values belong to the compound of their own block, whether it stands above or below them.
Legend:
[1] = Volume of distribution at steady state in mouse at 0.5 mg/kg, iv; format: ADME, organism-based; parameters: dose 0.5 mg/kg, route intravenous; conditions: in vivo, read-out: Vdss
[2] = Clearance in rat at 0.5 mg/kg, iv; format: ADME, organism-based; parameters: dose 0.5 mg/kg, route intravenous; conditions: in vivo
[3] = Half life in rat at 0.5 mg/kg, iv; format: ADME, organism-based; parameters: dose 0.5 mg/kg, route intravenous; conditions: in vivo
[4] = Clearance in mouse at 0.5 mg/kg, iv; format: ADME, organism-based; parameters: dose 0.5 mg/kg, route intravenous; conditions: in vivo
[5] = Intrinsic clearance in human hepatocytes measured per 10^6 cells; format: ADME, cell-based, Hepatocyte; conditions: read-out: CLH
[6] = Volume of distribution at steady state in rat at 0.5 mg/kg, iv; format: ADME, organism-based; parameters: dose 0.5 mg/kg, route intravenous; conditions: in vivo, read-out: Vdss
[7] = Oral bioavailability in mouse at 5 mg/kg; format: ADME, organism-based; conditions: in vivo
[8] = Half life in mouse at 0.5 mg/kg, iv; format: ADME, organism-based; parameters: dose 0.5 mg/kg, route intravenous; conditions: in vivo
[9] = Drug metabolism in dog hepatocytes assessed as 2-(2-(((3R,5R,6S)-1-((S)-2-(tert-butylsulfonyl)-1-cyclopropylethyl)-6-(4-chloro-3-fluorophenyl)-5-(3-chlorophenyl)-3-methyl-2-oxopiperidin-3-yl)methyl)thiazol-5-yl)acetic acid formation at 10 uM after 2 hrs by LC-MS/MS analysis; format: ADME, cell-based, Canis lupus familiaris, Hepatocyte
[10] = Drug metabolism in rat hepatocytes assessed as 2-(2-(((3R,5R,6S)-1-((S)-2-(tert-butylsulfonyl)-1-cyclopropylethyl)-6-(4-chloro-3-fluorophenyl)-5-(3-chlorophenyl)-3-methyl-2-oxopiperidin-3-yl)methyl)thiazol-5-yl)acetic acid formation at 10 uM after 2 hrs by LC-MS/MS analysis; format: ADME, cell-based, Hepatocyte
[11] = Drug metabolism in human hepatocytes assessed as 2-(2-(((3R,5R,6S)-1-((S)-2-(tert-butylsulfonyl)-1-cyclopropylethyl)-6-(4-chloro-3-fluorophenyl)-5-(3-chlorophenyl)-3-methyl-2-oxopiperidin-3-yl)methyl)thiazol-5-yl)acetic acid metabolite formation at 10 uM after 2 hrs by LC-MS/MS analysis; format: ADME, cell-based, Hepatocyte
[12] = Drug metabolism in monkey hepatocytes assessed as 2-(2-(((3R,5R,6S)-1-((S)-2-(tert-butylsulfonyl)-1-cyclopropylethyl)-6-(4-chloro-3-fluorophenyl)-5-(3-chlorophenyl)-3-methyl-2-oxopiperidin-3-yl)methyl)thiazol-5-yl)acetic acid formation at 10 uM after 2 hrs by LC-MS/MS analysis; format: ADME, cell-based, Macaca mulatta, Hepatocyte; conditions: rhesus monkey
[13] = Drug metabolism in monkey hepatocytes assessed as oxidative metabolite formation at 10 uM after 2 hrs by LC-MS/MS analysis; format: ADME, cell-based, Macaca mulatta, Hepatocyte; conditions: rhesus monkey
[14] = Drug metabolism in mouse hepatocytes assessed as 2-(2-(((3R,5R,6S)-1-((S)-2-(tert-butylsulfonyl)-1-cyclopropylethyl)-6-(4-chloro-3-fluorophenyl)-5-(3-chlorophenyl)-3-methyl-2-oxopiperidin-3-yl)methyl)thiazol-5-yl)acetic acid formation at 10 uM after 2 hrs by LC-MS/MS analysis; format: ADME, cell-based, Hepatocyte
[15] = Drug metabolism in dog hepatocytes assessed as oxidative metabolite formation at 10 uM after 2 hrs by LC-MS/MS analysis; format: ADME, cell-based, Canis lupus familiaris, Hepatocyte
[16] = Drug metabolism in mouse hepatocytes assessed as oxidative metabolite formation at 10 uM after 2 hrs by LC-MS/MS analysis; format: ADME, cell-based, Hepatocyte
[17] = Drug metabolism in human hepatocytes assessed as oxidative metabolite formation at 10 uM after 2 hrs by LC-MS/MS analysis; format: ADME, cell-based, Hepatocyte
[18] = Drug metabolism in rat hepatocytes assessed as oxidative metabolite formation at 10 uM after 2 hrs by LC-MS/MS analysis; format: ADME, cell-based, Hepatocyte

Vd [1]: 0.53 L/kg | clearance [2]: 1.5 mL/min/kg | half-life [3]: 2.3 h | clearance [4]: 2.5 mL/min/kg | hepatocyte CLint [5]: 10 µL/min/1e6 cells | Vd [6]: 0.41 L/kg | bioavailability [7]: 36% | half-life [8]: 4.1 h
SMILES: CC(C)(C)S(=O)(=O)C[C@H](C1CC1)N1C(=O)[C@@](C)(Cc2ncc(C(=O)O)s2)C[C@H](c2cccc(Cl)c2)[C@H]1c1ccc(Cl)c(F)c1

hepatocyte CLint [5]: 5.1 µL/min/1e6 cells
SMILES: Cc1cc(C[C@@]2(C)C[C@H](c3cccc(Cl)c3)[C@@H](c3ccc(Cl)cc3)N([C@H](CS(=O)(=O)C(C)(C)C)C3CC3)C2=O)ncc1C(=O)O

Vd [1]: 0.57 L/kg | clearance [2]: 6 mL/min/kg | half-life [3]: 1.8 h | clearance [4]: 3.83 mL/min/kg | hepatocyte CLint [5]: 10 µL/min/1e6 cells | Vd [6]: 0.41 L/kg | bioavailability [7]: 60% | half-life [8]: 2.8 h
SMILES: CC(C)(C)S(=O)(=O)C[C@H](C1CC1)N1C(=O)[C@@](C)(Cc2ccc(C(=O)O)cn2)C[C@H](c2cccc(Cl)c2)[C@H]1c1ccc(Cl)cc1

hepatocyte CLint [5]: 14 µL/min/1e6 cells
SMILES: CC(C)(C)S(=O)(=O)C[C@H](C1CC1)N1C(=O)[C@@](C)(Cc2nccs2)C[C@H](c2cccc(Cl)c2)[C@H]1c1ccc(Cl)c(F)c1

hepatocyte CLint [5]: 25 µL/min/1e6 cells
SMILES: CC(C)(C)S(=O)(=O)C[C@H](C1CC1)N1C(=O)[C@@](C)(Cc2cnc(C(=O)O)cn2)C[C@H](c2cccc(Cl)c2)[C@H]1c1ccc(Cl)cc1

Vd [1]: 0.72 L/kg | clearance [2]: 22.8 mL/min/kg | half-life [3]: 1.81 h | clearance [4]: 7.17 mL/min/kg | hepatocyte CLint [5]: 5.8 µL/min/1e6 cells | Vd [6]: 0.74 L/kg | bioavailability [7]: 10% | half-life [8]: 2.01 h
SMILES: CC(C)(C)S(=O)(=O)C[C@H](C1CC1)N1C(=O)[C@@](C)(Cc2ncc(CC(=O)O)s2)C[C@H](c2cccc(Cl)c2)[C@H]1c1ccc(Cl)cc1

hepatocyte CLint [5]: 47 µL/min/1e6 cells
SMILES: CC(C)(C)S(=O)(=O)C[C@H](C1CC1)N1C(=O)[C@@](C)(Cc2ncc(C(=O)CO)s2)C[C@H](c2cccc(Cl)c2)[C@H]1c1ccc(Cl)cc1

hepatocyte CLint [5]: 5.3 µL/min/1e6 cells
SMILES: CC(C)(C)S(=O)(=O)C[C@H](C1CC1)N1C(=O)[C@@](C)(Cc2nc(CC(=O)O)cs2)C[C@H](c2cccc(Cl)c2)[C@H]1c1ccc(Cl)cc1

hepatocyte CLint [5]: 10 µL/min/1e6 cells
SMILES: CC(C)(C)S(=O)(=O)C[C@H](C1CC1)N1C(=O)[C@@](C)(Cc2nnc(CC(=O)O)[nH]2)C[C@H](c2cccc(Cl)c2)[C@H]1c1ccc(Cl)cc1

hepatocyte CLint [5]: 4.3 µL/min/1e6 cells
SMILES: CC(C)(C)S(=O)(=O)C[C@H](C1CC1)N1C(=O)[C@@](C)(Cc2ncc(CC(=O)O)o2)C[C@H](c2cccc(Cl)c2)[C@H]1c1ccc(Cl)c(F)c1

hepatocyte CLint [5]: 7.8 µL/min/1e6 cells
SMILES: CC(C)(C)S(=O)(=O)C[C@H](C1CC1)N1C(=O)[C@@](C)(Cc2ccc(C(=O)O)cn2)C[C@H](c2cccc(Cl)c2)[C@H]1c1ccc(Cl)c(F)c1

hepatocyte CLint [5]: 3.4 µL/min/1e6 cells
SMILES: CC(C)(C)S(=O)(=O)C[C@H](C1CC1)N1C(=O)[C@@](C)(Cc2ccc(CC(=O)O)cn2)C[C@H](c2cccc(Cl)c2)[C@H]1c1ccc(Cl)cc1

hepatocyte CLint [5]: < 0.1 µL/min/1e6 cells
SMILES: CC(C)(C(=O)O)c1ccc(C[C@@]2(C)C[C@H](c3cccc(Cl)c3)[C@@H](c3ccc(Cl)cc3)N([C@H](CS(=O)(=O)C(C)(C)C)C3CC3)C2=O)nc1

hepatocyte CLint [5]: 4.7 µL/min/1e6 cells
SMILES: CC(C)(C)S(=O)(=O)C[C@H](C1CC1)N1C(=O)[C@@](C)(Cc2ncc(C(F)(F)C(=O)O)s2)C[C@H](c2cccc(Cl)c2)[C@H]1c1ccc(Cl)c(F)c1

hepatocyte CLint [5]: 14 µL/min/1e6 cells
SMILES: CC(C)(C)S(=O)(=O)C[C@H](C1CC1)N1C(=O)[C@@](C)(Cc2ncc(C(=O)O)cn2)C[C@H](c2cccc(Cl)c2)[C@H]1c1ccc(Cl)c(F)c1

hepatocyte CLint [5]: 26 µL/min/1e6 cells
SMILES: Cc1nc(C[C@@]2(C)C[C@H](c3cccc(Cl)c3)[C@@H](c3ccc(Cl)cc3)N([C@H](CS(=O)(=O)C(C)(C)C)C3CC3)C2=O)ccc1C(=O)O

hepatocyte CLint [5]: 10 µL/min/1e6 cells
SMILES: CC(C)(C)S(=O)(=O)C[C@H](C1CC1)N1C(=O)[C@@](C)(Cc2ncc(C(=O)O)cn2)C[C@H](c2cccc(Cl)c2)[C@H]1c1ccc(Cl)cc1

hepatocyte CLint [5]: 1.8 µL/min/1e6 cells
SMILES: CC(C)(C)S(=O)(=O)C[C@H](C1CC1)N1C(=O)[C@@](C)(Cc2nc(C(=O)O)cs2)C[C@H](c2cccc(Cl)c2)[C@H]1c1ccc(Cl)cc1

hepatocyte CLint [5]: 3.6 µL/min/1e6 cells
SMILES: CC(C)(C(=O)O)c1cnc(C[C@@]2(C)C[C@H](c3cccc(Cl)c3)[C@@H](c3ccc(Cl)cc3)N([C@H](CS(=O)(=O)C(C)(C)C)C3CC3)C2=O)s1

Drug metabolism [9]: metabolite_notdetected | Vd [1]: 0.35 L/kg | clearance [2]: 3.83 mL/min/kg | half-life [3]: 4.4 h | Drug metabolism [10]: metabolite_notdetected | clearance [4]: 2.5 mL/min/kg | hepatocyte CLint [5]: 5.5 µL/min/1e6 cells | Drug metabolism [11]: metabolite_notdetected | Drug metabolism [12]: metabolite_notdetected | Vd [6]: 0.27 L/kg | Drug metabolism [13]: metabolite_detected | bioavailability [7]: 56% | Drug metabolism [14]: metabolite_notdetected | Drug metabolism [15]: metabolite_detected | Drug metabolism [16]: metabolite_detected | half-life [8]: 3.2 h | Drug metabolism [17]: metabolite_detected | Drug metabolism [18]: metabolite_detected
SMILES: CC(C)(C)S(=O)(=O)C[C@H](C1CC1)N1C(=O)[C@@](C)(Cc2ncc(CC(=O)O)s2)C[C@H](c2cccc(Cl)c2)[C@H]1c1ccc(Cl)c(F)c1

hepatocyte CLint [5]: 7.7 µL/min/1e6 cells
SMILES: CC(C)(C)S(=O)(=O)C[C@H](C1CC1)N1C(=O)[C@@](C)(Cc2ncc(C3(C(=O)O)CC3)s2)C[C@H](c2cccc(Cl)c2)[C@H]1c1ccc(Cl)cc1

Vd [1]: 0.67 L/kg | clearance [2]: 3.17 mL/min/kg | half-life [3]: 3.6 h | clearance [4]: 5.83 mL/min/kg | hepatocyte CLint [5]: 8.7 µL/min/1e6 cells | Vd [6]: 0.18 L/kg | bioavailability [7]: 18% | half-life [8]: 3.3 h
SMILES: CC(C)(C)S(=O)(=O)C[C@H](C1CC1)N1C(=O)[C@@](C)(Cc2ncc(C(=O)O)s2)C[C@H](c2cccc(Cl)c2)[C@H]1c1ccc(Cl)cc1

hepatocyte CLint [5]: 5 µL/min/1e6 cells
SMILES: CC(C)(C)S(=O)(=O)C[C@H](C1CC1)N1C(=O)[C@@](C)(Cc2ncc(CC(=O)O)[nH]2)C[C@H](c2cccc(Cl)c2)[C@H]1c1ccc(Cl)cc1

hepatocyte CLint [5]: 2.8 µL/min/1e6 cells
SMILES: CC(C)(C)S(=O)(=O)C[C@H](C1CC1)N1C(=O)[C@@](C)(Cn2cc(C(=O)O)cn2)C[C@H](c2cccc(Cl)c2)[C@H]1c1ccc(Cl)cc1
